As a reminder, the MIC is the smallest concentration in the dilution series that meets the test's criterion for growth inhibition.

≈ marks a conversion by molar mass, not a printed value. Counter-ions that a name gives are not always drawn. Like-named read-outs stand apart in the source and are kept apart here.

Assay [1] deals with Aureobasidium pullulans (APUL). The experiment in a line: Minimum inhibitory concentration (MIC), broth two-fold serial dilution test. The conditions noted are these: Aureobasidium pullulans. Type of assay: cell-based.
Assay [2] relates to Phytophthora capsici (PHY). Briefly: In-vitro plant fungicide test. Type of assay: cell-based. The conditions noted are these: Phytophthora capsici; 25 ppm; Table IVa; read-out: % Control at 25 ppm PHY.
The next assay concerns Escherichia coli (ECOL). The experiment in a line: Minimum inhibitory concentration (MIC), broth two-fold serial dilution test. The conditions noted are these: Escherichia coli, read-out: MIC (G-) ECOL, M9G (minimal salts media with glucose).
Assay [3] has as its system Pseudomonas fluorescens (PSFL). The description is as above. The conditions noted are these: Pseudomonas fluorescens, read-out: MIC (G-) PSFL, M9G (minimal salts media with glucose).
The test system of a further assay is Piricularia oryzae (PIR). The experiment in a line: microbe, parasite or virus in culture. The conditions noted are these: read-out: % Control at 25 ppm PIR. In kind it is cell-based.
For assay [4], the system named is Cochliobolus sativus (HEL). Briefly: In-vitro plant fungicide test. Type of assay: cell-based. The conditions noted are these: Bipolaris sorokiniana, 25 ppm; Table IVa; *=Phytotoxic; read-out: % Control at 25 ppm HEL.
In a further assay the test system is Pythium ultimum (PYU). The experiment in a line: In-vitro plant fungicide test. Type of assay: cell-based. The conditions noted are these: Globisporangium ultimum; 25 ppm; Table IVa; read-out: % Control at 25 ppm PYU.
The subject of assay [5] is Xanthomonas campestris (XAN). The experiment in a line: In-vitro plant fungicide test. Type of assay: cell-based. The conditions noted are these: Xanthomonas campestris; 25 ppm; Table IVa; read-out: % Control at 25 ppm XAN.
For the next assay, the system named is Rhizoctonia solani (RHI). The experiment in a line: In-vitro plant fungicide test. In kind it is cell-based. The conditions noted are these: Rhizoctonia solani; 25 ppm; Table IVa; read-out: % Control at 25 ppm RHI.
In the next assay the test system is THREE FUNGI. Briefly: MIC test against three fungi in Mycophile Broth, pH 5.0, read after 8 days (Table VII). In kind it is cell-based. The conditions noted are these: 192 h.
Assay [6] has as its system Pseudomonas aerugenosa (PSAE). The experiment in a line: Minimum inhibitory concentration (MIC), broth two-fold serial dilution test. The conditions noted are these: Pseudomonas, read-out: MIC (G-) PSAE, M9G (minimal salts media with glucose).
Source text: (§1) When the test is ready to be done, each vessel in the dilution series, except the first vessel, contains an equal volume of compound free broth. The first vessel contains twice the volume of broth with the starting concentration of test compound. One half of the broth from the first vessel is transferred to the second vessel. After being mixed, one half the resulting volume is removed from the second vessel and transferred to the third vessel. The entire cycle is repeated sufficiently to give a series of concentrations amounting to 500, 250, 125, 63, 31, 16, 8, and 4 ppm (or 100, 50, 25, 12.5, 6.2, 3.1, 1.6, and 0.8), respectively.
(§2) Each vessel is then inoculated with a cell suspension of the appropriate test organism. Bacteria are grown in broth, fungi on agar slants for a time and at a temperature appropriate to the species being tested, and algae are a mixture of green algae and blue-green bacteria grown in a nutrient media. At the end of the growth period, in the case of bacteria, the broth is vortexed to disperse the cells.
(§3) The vessels are then incubated at the appropriate temperature. After the incubation, the vessels are examined for growth/no growth.
For a further assay, the system named is Botrytis cinerea (BOC). The experiment in a line: In-vitro plant fungicide test. The conditions noted are these: Botrytis cinerea, 25 ppm; Table IVa; *=Phytotoxic; read-out: % Control at 25 ppm BOC. In kind it is cell-based.
A further assay relates to Septoria nodorum (SEP). Briefly: In-vitro plant fungicide test. In kind it is cell-based. The conditions noted are these: 25 ppm, Table IVa; for inhibition of growth at 25 ppm: Parastagonospora nodorum, read-out: % Control at 25 ppm SEP.
A further assay concerns Aspergillus niger (ANIG). The experiment in a line: Minimum inhibitory concentration (MIC), broth two-fold serial dilution test. In kind it is cell-based. The conditions noted are these: Aspergillus niger.
Another assay deals with Fusarium roseum (FUS). Briefly: In-vitro plant fungicide test. In kind it is cell-based. The conditions noted are these: Table IVa, *=Phytotoxic; for inhibition of growth at 25 ppm: Fusarium sambucinum, read-out: % Control at 25 ppm FUS, 25 ppm.
In assay [7] the test system is Staphylococcus aureus (SAUR). Briefly: Minimum inhibitory concentration (MIC), broth two-fold serial dilution test. The conditions noted are these: Staphylococcus aureus, read-out: MIC (G+) SAUR, M9G (minimal salts media with glucose).
Source text: as §1, §2, §3
[8] abbreviates: M9G (minimal salts media with glucose), Table IIIa, read-out: MIC (F) APUL.
Where [9] appears, read: Aspergillus niger, serial dilutions from 50 ppm, read after 8 days of incubation, read-out: MIC ANIG.
The mark [10] stands for this setting: Aureobasidium pullulans, serial dilutions from 50 ppm, read after 8 days of incubation, read-out: MIC APUL.
[11] abbreviates: Gloeophyllum trabeum, serial dilutions from 50 ppm, read after 8 days of incubation, read-out: MIC GTRA.
[12] abbreviates: M9G (minimal salts media with glucose), Table IIIa, read-out: MIC (F) ANIG.
The mark [13] stands for this setting: read-out: MIC (F) APUL, M9G (minimal salts media with glucose), Table IIIa.
Setting [14] is: Aspergillus niger, pH 5, read-out: MIC ANIG, Aspergillus niger, serial dilutions from 50 ppm, read after 8 days of incubation.
The mark [15] stands for this setting: Aureobasidium pullulans, pH 5, read-out: MIC APUL, Aureobasidium pullulans, serial dilutions from 50 ppm, read after 8 days of incubation.
Setting [16] is: Gloeophyllum trabeum, pH 5, read-out: MIC GTRA, Gloeophyllum trabeum, serial dilutions from 50 ppm, read after 8 days of incubation.
Where [17] appears, read: read-out: MIC (F) ANIG, M9G (minimal salts media with glucose), Table IIIa.
[18] abbreviates: Table IIIc, iodopropargyl esters of peptides.

On to `C[C@H](NC(=O)OC(C)(C)C)C(=O)OCC#CI` [Compound 2, N-t-butoxycarbonyl-L-alanine iodopropargyl ester], for which the minimal inhibitory concentration (MIC) is 3 µg/mL in [1] (setting [8]); over 100 µg/mL with Escherichia coli (ECOL) (Table IIIa); 50 µg/mL in assay [3] (Table IIIa); 3.2 µg/mL (≈ 9.06 µM) with THREE FUNGI (setting [9]); 25 µg/mL (≈ 70.8 µM) in the assay on THREE FUNGI (setting [10]); 1.6 µg/mL (≈ 4.53 µM) in the assay on THREE FUNGI (setting [11]). The MIC in assay [6] (Table IIIa) is over 100 µg/mL; in the assay with Aspergillus niger (ANIG) (setting [12]) it was 3 µg/mL; in [7] (Table IIIa) it was 50 µg/mL. The inhibition of growth at 25 ppm came out at 100% in assay [2]; 100% with Piricularia oryzae (PIR); 100% in assay [4]; 100% in the assay with Pythium ultimum (PYU); 0% in assay [5]; 100% with Rhizoctonia solani (RHI). The inhibition of growth at 25 ppm in the assay with Botrytis cinerea (BOC), with Septoria nodorum (SEP) and in the assay on Fusarium roseum (FUS) was 100% each time.

In the case of `CC(C)(C)OC(=O)N[C@@H](COCc1ccccc1)C(=O)OCC#CI` [Compound 3, N-t-butoxycarbonyl-O-benzyl-L-serine iodopropargyl ester], the minimal inhibitory concentration (MIC) in assay [1] (setting [8]) was under 0.8 µg/mL; with Escherichia coli (ECOL) (Table IIIa), over 100 µg/mL; in assay [3] (Table IIIa), over 100 µg/mL; with THREE FUNGI (setting [9]), 25 µg/mL (≈ 54.4 µM); with THREE FUNGI (setting [10]), 50 µg/mL (≈ 109 µM); in the assay on THREE FUNGI (setting [11]) it was 3.2 µg/mL (≈ 6.97 µM). Besides, the minimal inhibitory concentration (MIC) was over 100 µg/mL in assay [6] (Table IIIa), 3 µg/mL in the assay with Aspergillus niger (ANIG) (setting [12]) and 25 µg/mL in assay [7] (Table IIIa). The inhibition of growth at 25 ppm is 100% in assay [2]; 100% in the assay with Piricularia oryzae (PIR); 100% in assay [4]; 100% in the assay on Pythium ultimum (PYU); 0% in assay [5]; 100% in the assay with Rhizoctonia solani (RHI). Further, the inhibition of growth at 25 ppm with Botrytis cinerea (BOC) is 0%; in the assay with Septoria nodorum (SEP), 100%; in the assay on Fusarium roseum (FUS) it was 100%.

For the compound `CC(C)(C)OC(=O)N[C@@H](CSCc1ccccc1)C(=O)OCC#CI` [Compound 4, N-t-butoxycarbonyl-S-benzyl-L-cysteine iodopropargyl ester], the MIC was 3 µg/mL in [1] (setting [8]); over 100 µg/mL in the assay with Escherichia coli (ECOL) (Table IIIa); over 10 µg/mL in assay [3] (Table IIIa); 50 µg/mL (≈ 105 µM) with THREE FUNGI (setting [9]); 50 µg/mL (≈ 105 µM) with THREE FUNGI (setting [10]); 6.2 µg/mL (≈ 13 µM) in the assay with THREE FUNGI (setting [11]). Moreover, the MIC in assay [6] (Table IIIa) was over 100 µg/mL; with Aspergillus niger (ANIG) (setting [12]), 3 µg/mL; in assay [7] (Table IIIa), 25 µg/mL. Besides, the inhibition of growth at 25 ppm turned out to be 100% in assay [2]; 100% in the assay with Piricularia oryzae (PIR); 100% with Pythium ultimum (PYU); 0% in [5]; 100% in the assay with Rhizoctonia solani (RHI); 100% in the assay with Septoria nodorum (SEP). In addition, in the assay on Fusarium roseum (FUS), the inhibition of growth at 25 ppm was 95%. In the assay with Fusarium roseum (FUS) (25 ppm), the “% Control at 25 ppm FUS” value was determined as 100%.

As to `C[C@@H](OCc1ccccc1)[C@H](NC(=O)OC(C)(C)C)C(=O)OCC#CI` [Compound 5, N-t-butoxycarbonyl-O-benzyl-L-threonine iodopropargyl ester], the minimal inhibitory concentration (MIC) was under 0.8 µg/mL in assay [1] (setting [8]); over 100 µg/mL with Escherichia coli (ECOL) (Table IIIa); over 100 µg/mL in assay [3] (Table IIIa); over 50 µg/mL in the assay with THREE FUNGI (setting [9]); over 50 µg/mL in the assay on THREE FUNGI (setting [10]); 6.2 µg/mL (≈ 13.1 µM) in the assay on THREE FUNGI (setting [11]). Further, the MIC was over 100 µg/mL in assay [6] (Table IIIa), 25 µg/mL with Aspergillus niger (ANIG) (setting [12]) and 63 µg/mL in assay [7] (Table IIIa). The inhibition of growth at 25 ppm in [2] worked out at 50%; with Piricularia oryzae (PIR), 100%; in the assay on Pythium ultimum (PYU) it was 0%; in [5], 0%; with Rhizoctonia solani (RHI), 100%; in the assay with Septoria nodorum (SEP), 90%. The inhibition of growth at 25 ppm in the assay with Fusarium roseum (FUS) was determined as 95%. In the assay on Septoria nodorum (SEP), the “% Control at 25 ppm SEP” value came out at 75%.

On to `N[C@@H](COCc1ccccc1)C(=O)OCC#CI` [Compound 9, O-benzyl-L-serine iodopropargyl ester trifluoroacetate], for which the MIC in [1] (setting [13]) is under 4 µg/mL; in the assay with Escherichia coli (ECOL) (Table IIIa), 64 µg/mL; in assay [3] (Table IIIa), 25 µg/mL; in the assay on THREE FUNGI (setting [14]) it was 25 µg/mL; in the assay on THREE FUNGI (setting [15]), 50 µg/mL; with THREE FUNGI (setting [16]) it was 12.5 µg/mL. Moreover, the figures for the minimum inhibitory concentration (MIC) (in assay [6] (Table IIIa); in the assay on Aspergillus niger (ANIG) (setting [17]); in assay [7] (Table IIIa)) were 125 µg/mL, under 4 µg/mL and 500 µg/mL, respectively. The inhibition of growth at 25 ppm came out at 100% in assay [2]; 100% in the assay on Piricularia oryzae (PIR); 100% in [4]; 100% in the assay with Pythium ultimum (PYU); 0% in assay [5]; 100% with Rhizoctonia solani (RHI). Besides, the inhibition of growth at 25 ppm in the assay with Botrytis cinerea (BOC), in the assay on Septoria nodorum (SEP) and in the assay on Fusarium roseum (FUS) was 100% throughout.

Consider `N[C@@H](CSCc1ccccc1)C(=O)OCC#CI` [Compound 10, S-benzyl-L-cysteine iodopropargyl ester trifluoroacetate], for which the MIC was 6.3 µg/mL in assay [1] (setting [13]); over 100 µg/mL with Escherichia coli (ECOL) (Table IIIa); over 100 µg/mL in [3] (Table IIIa); 6.2 µg/mL with THREE FUNGI (setting [14]); 12.5 µg/mL with THREE FUNGI (setting [15]); 6.2 µg/mL with THREE FUNGI (setting [16]). Moreover, the MIC was 100 µg/mL in [6] (Table IIIa), 3 µg/mL in the assay on Aspergillus niger (ANIG) (setting [17]) and over 100 µg/mL in [7] (Table IIIa). For the same compound, the inhibition of growth at 25 ppm in assay [2] worked out at 100%; in the assay on Piricularia oryzae (PIR) it was 100%; in assay [4] it was 50%; with Pythium ultimum (PYU), 100%; in assay [5], 0%; with Rhizoctonia solani (RHI), 100%. The inhibition of growth at 25 ppm with Botrytis cinerea (BOC) came to 0%; with Septoria nodorum (SEP), 100%; with Fusarium roseum (FUS), 100%.

Consider `C[C@H](NC(=O)CNC(=O)OC(C)(C)C)C(=O)OCC#CI` [Compound 27, N-t-butoxycarbonylglycyl-L-alanine iodopropargyl ester], for which the MIC stood at 8 µg/mL in [1] (M9G (minimal salts media with glucose), Table IIIc, iodopropargyl esters of peptides, read-out: MIC (F) APUL); 250 µg/mL in the assay with Escherichia coli (ECOL) (setting [18]); 125 µg/mL in assay [3] (setting [18]); 25 µg/mL (≈ 60.9 µM) in the assay with THREE FUNGI (setting [9]); 50 µg/mL (≈ 122 µM) with THREE FUNGI (setting [10]); 6.2 µg/mL (≈ 15.1 µM) with THREE FUNGI (setting [11]). Also, the MIC in assay [6] (setting [18]) is 250 µg/mL; in the assay on Aspergillus niger (ANIG) (M9G (minimal salts media with glucose), Table IIIc, iodopropargyl esters of peptides, read-out: MIC (F) ANIG), under 4 µg/mL; in [7] (setting [18]), 125 µg/mL. Moreover, the inhibition of growth at 25 ppm with Piricularia oryzae (PIR) is 0%; in [4], 100%; in the assay on Pythium ultimum (PYU), 100%; in [5], 0%; in the assay on Rhizoctonia solani (RHI), 100%; in the assay on Botrytis cinerea (BOC), 75%. Besides, the inhibition of growth at 25 ppm in the assay on Septoria nodorum (SEP) and with Fusarium roseum (FUS) was 100% each time.

(Values after EP0414533A1, “Use of iodopropargyl esters of alpha-amino acid derivatives as antimicrobial agents” (ROHM AND HAAS COMPANY, priority 1989, dated 1991).)
